Assays:
IRAK1 = target: T1, IRAK1 (Homo sapiens, UniProt P51617); assay: RBC HotSpot Kinase Assay, IRAK1; assay type: biochemical; conditions: isolated kinase enzyme, 33P-ATP, P81 filter-binding
T1 construct: purchased Reaction Biology (RBC HotSpot)
How it was run: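 Reactions ran in 20 mM Hepes (pH 7.5) containing 10 mM MgCl2, 1 mM EGTA, 0.1 mM Na3VO4, 2 mM DTT, 0.02 mg/ml BSA, 0.01% Brij35 and 1% DMSO, plus required cofactors. Functional activity readout on the expressible enzyme form, sometimes C-terminally truncated or lacking receptor regulatory regions.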

IRAK4 = target: T2, IRAK4 (Homo sapiens, UniProt Q9NWZ3); assay: RBC HotSpot Kinase Assay, IRAK4; assay type: biochemical; set-up: purchased Reaction Biology (RBC HotSpot); conditions: isolated kinase enzyme, 33P-ATP, P81 filter-binding
T2 sequence (Q9NWZ3 1-460): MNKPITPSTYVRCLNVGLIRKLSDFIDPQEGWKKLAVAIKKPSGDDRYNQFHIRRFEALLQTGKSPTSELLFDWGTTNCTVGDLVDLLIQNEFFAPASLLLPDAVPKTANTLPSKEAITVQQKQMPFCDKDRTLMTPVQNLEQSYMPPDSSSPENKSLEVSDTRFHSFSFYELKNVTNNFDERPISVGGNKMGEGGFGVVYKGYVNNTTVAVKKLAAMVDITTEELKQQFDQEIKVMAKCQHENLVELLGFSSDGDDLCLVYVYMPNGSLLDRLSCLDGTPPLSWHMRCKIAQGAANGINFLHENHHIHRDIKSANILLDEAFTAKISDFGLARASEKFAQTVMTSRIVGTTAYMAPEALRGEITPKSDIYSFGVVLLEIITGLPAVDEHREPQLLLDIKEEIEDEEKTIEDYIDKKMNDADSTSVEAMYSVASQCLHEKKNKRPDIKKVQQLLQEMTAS
How it was run: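 Radiometric filter-binding activity assay with isolated recombinant kinase (construct may be truncated or catalytic domain only) in 20 mM Hepes pH 7.5, 10 mM MgCl2, 1 mM EGTA, 2 mM DTT, 1% DMSO. Compound preincubated 20 min with kinase/substrate; reaction started with 33P-ATP, run 2 h at room temperature.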

THP1 cells (FLT3 WT) = assay: Combination drug screening with venetoclax in THP1 cells (Cell Titre Glo, 10 × 10); assay type: cell-based; conditions: for Excess HSA (sum excess HSA score, combination with venetoclax): 10 × 10 dataset, Cell Titre Glo at 48 hours, optimal of 4 dose combinations, negative = synergy; for Concentration needed to decrease the 312.5 nM Venetoclax response to <20%: Cell Titer Glo at 48 hours
Method: (§1) These assays were performed using the Cell Titre Glo assay, measured at 48 hours.
(§2) A smaller concentration indicates higher potency to synergize with Venetoclax.

[1] = test system: MOLM14-D835Y cells (FLT3-ITD (D835Y) mutant); assay: Combination drug screening with venetoclax in MOLM14 (D835Y) cells (Cell Titre Glo, 10 × 10); assay type: cell-based; set-up: Excess HSA (sum excess HSA score, combination with venetoclax): scale not given here; conditions: for Excess HSA (sum excess HSA score, combination with venetoclax): 10 × 10 dataset, Cell Titre Glo at 48 hours, optimal of 4 dose combinations, negative = synergy; for Concentration of a compound of the disclosure, or gilteritinib, needed to decrease the 62.5 nM Ven response to <10% in MOLM14(D835Y) cells: combination with 62.5 nM Venetoclax, Cell Titer Glo, 48 hours, response <10%
Method: as §1, §2

MOLM14 F691L cells = assay: MOLM14 F691L cell viability assay (Cell Titer Glo); assay type: cell-based; conditions: Homo sapiens, MOLM-14; cell viability, Cell Titer Glo, 48 hours; read-out: MOLM14 F691L IC50
How it was run: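 Luminescent ATP read-out (CellTiter-Glo, 15 min room temperature) taken 48 h after compound addition. Cells were MOLM14 carrying FLT3 D835Y or F691L mutations, plated at 1000 cells per well.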

T1 sequence (P51617 whole entry): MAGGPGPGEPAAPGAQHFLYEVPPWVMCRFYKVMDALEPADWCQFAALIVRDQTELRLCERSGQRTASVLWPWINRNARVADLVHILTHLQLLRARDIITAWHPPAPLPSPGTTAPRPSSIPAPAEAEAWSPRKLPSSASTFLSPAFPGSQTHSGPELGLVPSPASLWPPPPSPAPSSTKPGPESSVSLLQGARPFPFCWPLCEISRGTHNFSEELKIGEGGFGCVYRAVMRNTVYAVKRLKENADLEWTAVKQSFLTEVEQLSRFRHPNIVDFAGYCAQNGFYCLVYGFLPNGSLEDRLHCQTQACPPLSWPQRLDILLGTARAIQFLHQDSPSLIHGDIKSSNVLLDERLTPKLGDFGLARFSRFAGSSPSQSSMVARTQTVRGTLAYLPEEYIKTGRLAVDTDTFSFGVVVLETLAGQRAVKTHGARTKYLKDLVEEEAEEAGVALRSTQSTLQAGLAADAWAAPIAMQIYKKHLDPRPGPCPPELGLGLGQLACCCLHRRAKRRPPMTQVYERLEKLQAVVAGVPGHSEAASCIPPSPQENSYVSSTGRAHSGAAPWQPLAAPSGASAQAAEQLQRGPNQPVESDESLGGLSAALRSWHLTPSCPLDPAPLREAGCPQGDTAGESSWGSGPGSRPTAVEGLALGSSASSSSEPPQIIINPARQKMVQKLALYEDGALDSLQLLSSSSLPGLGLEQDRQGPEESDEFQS

SMILES	IC50 (IRAK1) [nM]	IC50 (IRAK4) [nM]	Excess HSA (sum excess HSA score, combination with venetoclax) (THP1 cells (FLT3 WT))	Concentration needed to decrease the 312.5 nM Venetoclax response to <20% (THP1 cells (FLT3 WT)) [nM]	Excess HSA (sum excess HSA score, combination with venetoclax) [1]	Concentration of a compound of the disclosure, or gilteritinib, needed to decrease the 62.5 nM Ven response to <10% in MOLM14(D835Y) cells [1] [nM]	IC50 (MOLM14 F691L cells) [nM]
CC(O)(c1ccc2ncc(-c3ccnc(N[C@@H]4CCCNC4)n3)n2c1)C(F)(F)F (single isomer, unassigned) [Compound 22a]	19	3	–	–	–	–	–
CC(O)(c1ccc2ncc(-c3ccnc(N[C@@H]4CCCNC4)n3)n2c1)C(F)(F)F (single isomer, unassigned) [Compound 23a]	3	0.8	–	–	–	–	–
CC(O)(c1ccc2ncc(-c3ccnc(N[C@H]4CNCC[C@@H]4F)n3)n2c1)C(F)(F)F (single isomer, unassigned) [Compound 25a]	17	2	−1386	1250	−1507	25	–
CC(O)(c1ccc2ncc(-c3cncc(N[C@@H]4CCCNC4)n3)n2c1)C(F)(F)F (single isomer, unassigned) [Compound 28a]	33	3	–	–	–	–	–
CC(O)(c1ccc2ncc(-c3cncc(N[C@H]4CNCC[C@@H]4F)n3)n2c1)C(F)(F)F (single isomer, unassigned) [Compound 31a]	17	2	–	–	–	–	–
COc1cc2ncc(-c3nc(N[C@H]4CNCC[C@@H]4F)ncc3F)n2nc1C1CC1 [Compound 1a, 4-(6-cyclopropyl-7-methoxyimidazo[1,2-b]pyridazin-3-yl)-5-fluoro-N-((3S,4S)-4-fluoropiperidin-3-yl)pyrimidin-2-amine]	1	0.9	−696.6	2500	−1505	1.6	6
FC(F)COc1cc2ncc(-c3ccnc(N[C@H]4CNCC[C@@H]4F)n3)n2nc1C1CC1 [Compound 4a, 4-(6-cyclopropyl-7-(2,2-difluoroethoxy)imidazo[1,2-b]pyridazin-3-yl)-N-((3 S,4S)-4-fluoropiperidin-3-yl)pyrimidin-2-amine]	31	1	−2433	2500	−1769	6.3	36
F[C@H]1CCNC[C@@H]1Nc1nccc(-c2cnc3cc(OC4CC4)c(C4CC4)nn23)n1 [Compound 12a, 4-(7-cyclopropoxy-6-cyclopropylimidazo[1,2-b]pyridazin-3-yl)-N-((3S,4S)-4-fluoropiperidin-3-yl)pyrimidin-2-amine]	18	6	−1770.6140	5000	−1236	100	101
COc1cc2ncc(-c3nc(N[C@H]4CNCC[C@@H]4F)ncc3F)n2nc1C(C)(C)O [Compound 45a, 2-(3-(5-fluoro-2-(((3S,4S)-4-fluoropiperidin-3-yl)amino)pyrimidin-4-yl)-7-methoxyimidazo[1,2-b]pyridazin-6-yl)propan-2-ol]	18	8	−1158	10000	−2340	25	90
CC(C)(O)c1ccc2ncc(-c3nc(N[C@H]4CNCC[C@@H]4F)ncc3F)n2c1 [Compound 46a, 2-(3-(5-fluoro-2-(((3S,4S)-4-fluoropiperidin-3-yl)amino)pyrimidin-4-yl)imidazo[1,2-a]pyridin-6-yl)propan-2-ol]	6	2	−774	2500	−1279	50	252
CC(C)(O)c1ccc2ncc(-c3nc(N[C@@H]4CCCNC4)ncc3F)n2c1 [Compound 48a, (R)-2-(3-(5-fluoro-2-(piperidin-3-ylamino)pyrimidin-4-yl)imidazo[1,2-a]pyridin-6-yl)propan-2-ol]	10	5	−759.8	2500	−1694	156.3	–
COc1cc2ncc(-c3nc(N[C@H]4CNCC[C@@H]4F)ncc3F)n2nc1C1CC(F)(F)C1 [Compound 49a, 4-(6-(3,3-difluorocyclobutyl)-7-methoxyimidazo[1,2-b]pyridazin-3-yl)-5-fluoro-N-((3S,4S)-4-fluoropiperidin-3-yl)pyrimidin-2-amine]	2	0.5	−1767	10000	−1960	6.3	–
COc1cc2ncc(-c3nc(N[C@@H]4CCCNC4)ncc3F)n2nc1C1CC2(CCC2)C1 [Compound 59a, (R)-5-fluoro-4-(7-methoxy-6-(spiro[3.3]heptan-2-yl)imidazo[1,2-b]pyridazin-3-yl)-N-(piperidin-3-yl)pyrimidin-2-amine]	0.7	3	−914.4	5000	−1911	12.5	45
COc1cc2ncc(-c3nc(N[C@H]4CNC[C@@H]4F)ncc3F)n2nc1N1CCCS1(=O)=O [Compound 111a, 2-(3-(5-fluoro-2-(((3S,4S)-4-fluoropyrrolidin-3-yl)amino)pyrimidin-4-yl)-7-methoxyimidazo[1,2-b]pyridazin-6-yl)isothiazolidine 1,1-dioxide]	40	3	–	–	–	–	113
COc1cc2ncc(-c3nc(N[C@H]4CNCC[C@@H]4F)ncc3F)n2nc1N1CCCS1(=O)=O [Compound 112a, 2-(3-(5-fluoro-2-(((3S,4S)-4-fluoropiperidin-3-yl)amino)pyrimidin-4-yl)-7-methoxyimidazo[1,2-b]pyridazin-6-yl)isothiazolidine 1,1-dioxide]	19	3	–	–	–	–	23
